According to the supplement of paper PMC10307832:

Columns and labels:
Experiment in all cases: relative viability (nuclei count vs DMSO), 5 days (fraction); higher = more cells survive
IPA-3 + Tozasertib = compound: C1=CC=C2C(=C1)C=CC(=C2SSC3=C(C=CC4=CC=CC=C43)O)O [IPA-3] + Cc1cc(Nc2cc(N3CCN(C)CC3)nc(Sc3ccc(NC(=O)C4CC4)cc3)n2)n[nH]1 [Tozasertib] (partner 0.1 µM)
In short: (§1)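 Five library-drug doses in √10 steps were combined with a fixed anchor-drug dose, or a single drug was given alone, by pin tool to lung cancer cell lines in 1536-well plates the day after seeding. Nuclei were stained and counted after 5 days. Relative viability is the nuclei count in treated wells over that in vehicle wells, taken as the median of duplicate plates.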

IPA-3 + Olaparib = compound: C1=CC=C2C(=C1)C=CC(=C2SSC3=C(C=CC4=CC=CC=C43)O)O [IPA-3] + O=C(c1cc(Cc2n[nH]c(=O)c3ccccc23)ccc1F)N1CCN(C(=O)C2CC2)CC1 [Olaparib] (partner 8 µM)
In short: as §1

Doramapimod + Linsitinib = compound: Cc1ccc(-n2nc(C(C)(C)C)cc2NC(=O)Nc2ccc(OCCN3CCOCC3)c3ccccc23)cc1 [Doramapimod] + C[C@]1(O)C[C@@H](c2nc(-c3ccc4ccc(-c5ccccc5)nc4c3)c3c(N)nccn32)C1 [Linsitinib] (partner 1 µM)
In short: as §1

Doramapimod + Phenformin = compound: Cc1ccc(-n2nc(C(C)(C)C)cc2NC(=O)Nc2ccc(OCCN3CCOCC3)c3ccccc23)cc1 [Doramapimod] + N=C(N)NC(=N)NCCc1ccccc1 [Phenformin] (partner 250 µM)
In short: as §1

Cell Line	relative viability (IPA-3 + Tozasertib; first compound 0.2 µM)	relative viability (IPA-3 + Tozasertib; first compound 0.6325 µM)	relative viability (IPA-3 + Tozasertib; first compound 2 µM)	relative viability (IPA-3 + Tozasertib; first compound 6.325 µM)	relative viability (IPA-3 + Tozasertib; first compound 20 µM)	relative viability (IPA-3 + Olaparib; first compound 0.2 µM)	relative viability (IPA-3 + Olaparib; first compound 0.6325 µM)	relative viability (IPA-3 + Olaparib; first compound 2 µM)	relative viability (IPA-3 + Olaparib; first compound 6.325 µM)	relative viability (IPA-3 + Olaparib; first compound 20 µM)	relative viability (Doramapimod + Linsitinib; first compound 0.02 µM)	relative viability (Doramapimod + Linsitinib; first compound 0.06325 µM)	relative viability (Doramapimod + Linsitinib; first compound 0.2 µM)	relative viability (Doramapimod + Linsitinib; first compound 0.6325 µM)	relative viability (Doramapimod + Linsitinib; first compound 2 µM)	relative viability (Doramapimod + Phenformin; first compound 0.02 µM)	relative viability (Doramapimod + Phenformin; first compound 0.06325 µM)	relative viability (Doramapimod + Phenformin; first compound 0.2 µM)	relative viability (Doramapimod + Phenformin; first compound 0.6325 µM)	relative viability (Doramapimod + Phenformin; first compound 2 µM)
SK-MES-1	0.991	0.775	0.933	0.804	0.694	0.763	0.694	0.652	0.498	0.241	1.08	1	0.996	1.09	0.909	0.634	0.648	0.648	0.628	0.568
NCI-H1355	0.596	0.566	0.599	0.586	0.656	0.764	0.779	0.836	0.675	0.709	0.804	0.819	0.824	0.908	0.779	0.423	0.467	0.454	0.421	0.415
NCI-H838	0.32	0.268	0.304	0.282	0.27	0.904	0.723	0.776	0.667	0.735	0.9	1.04	1.02	1.1	0.994	0.607	0.577	0.654	0.665	0.595
LK-2	0.168	0.192	0.176	0.142	0.155	0.831	0.615	0.788	0.988	0.938	0.284	0.388	0.348	0.42	0.22	0.278	0.332	0.382	0.282	0.246
NCI-H322M	0.502	0.408	0.527	0.498	0.513	0.91	0.786	0.817	0.776	0.746	0.851	0.834	0.909	1.01	0.874	0.813	0.782	0.852	0.909	0.828
